The test system of data set [1] is human liver cancer cell line (HepG-2). The data set is described as follows: MTT anticancer assay. Format: cell-based. To be noted: HepG2, HePG-2 cancer liver cell line, mean of three values, read-out: IC50 (Mean ± SEM).
The test system of data set [2] is P. aeruginosa RCMB 010043. The experiment in a line: Agar well diffusion, inhibition zone. Format: cell-based, Pseudomonas aeruginosa. Also noted: key to Mean diameter of inhibition zone (Mean ± SEM): –: -: No activity under the screening conditions. To be noted: mean of three values; for zone of inhibition at 1000 µg/mL: Pseudomonas aeruginosa, RCMB010043, 1 mg/mL, read-out: Mean diameter of inhibition zone (Mean ± SEM).

Data set [3] relates to (THLE-2) normal liver cell line. The data set is described as follows: Cytotoxic screening on normal liver cells. To be noted: Homo sapiens, mean of three values, read-out: IC50 (Mean ± SEM). Format: cell-based.
The subject of data set [4] is A. fumigatus RCMB 002568. The experiment in a line: Agar well diffusion, inhibition zone. The data set is classed as cell-based, Aspergillus fumigatus. Also noted: key to Mean diameter of inhibition zone (Mean ± SEM): –: -: No activity under the screening conditions. To be noted: mean of three values; for zone of inhibition at 1000 µg/mL: Aspergillus fumigatus, RCMB002568, 1 mg/mL, read-out: Mean diameter of inhibition zone (Mean ± SEM); for Mean diameter of inhibition zone (Mean ± SEM): 1 mg/mL.

Data set [5] has as its system E. coli RCMB 010052. The data set is described as follows: Agar well diffusion, inhibition zone. Format: cell-based, Escherichia coli. Further details: key to Mean diameter of inhibition zone (Mean ± SEM): –: -: No activity under the screening conditions. To be noted: mean of three values; for zone of inhibition at 1000 µg/mL: Escherichia coli, RCMB010052, 1 mg/mL, read-out: Mean diameter of inhibition zone (Mean ± SEM).

The next data set deals with C. albicans RCMB 005036. The experiment in a line: Agar well diffusion, inhibition zone. Format: cell-based, Candida albicans. Further details: key: –: -: No activity under the screening conditions. To be noted: 1 mg/mL, mean of three values.
The test system of data set [6] is B. subtilis RCMB 010067. The experiment in a line: Agar well diffusion, inhibition zone. Format: cell-based, Bacillus subtilis. To be noted: Bacillus subtilis, RCMB010067, 1 mg/mL, mean of three values, read-out: Mean diameter of inhibition zone (Mean ± SEM).
Data set [7] concerns S. pneumonia RCMB 010010. The data set is described as follows: Agar well diffusion, inhibition zone. The data set is classed as cell-based, Streptococcus pneumoniae. To be noted: Streptococcus pneumoniae, RCMB010010, 1 mg/mL, mean of three values, read-out: Mean diameter of inhibition zone (Mean ± SEM).
The subject of data set [8] is E. coli RCMB 010052. The experiment in a line: Minimum inhibitory concentration, modified agar well diffusion. Format: cell-based. To be noted: Escherichia coli, RCMB010052, mean of three values, read-out: MIC (Mean ± SEM).
Data set [9] has as its system S. pneumonia RCMB 010010. The description is as above. The data set is classed as cell-based. To be noted: Streptococcus pneumoniae, RCMB010010, mean of three values, read-out: MIC (Mean ± SEM).
In data set [10] the test system is B. subtilis RCMB 010067. Described as above. Format: cell-based. To be noted: Bacillus subtilis, RCMB010067, mean of three values, read-out: MIC (Mean ± SEM).
Data set [11] deals with P. aeruginosa RCMB 010043. The data set is described as above. Format: cell-based. To be noted: Pseudomonas aeruginosa, RCMB010043, mean of three values, read-out: MIC (Mean ± SEM).
For data set [12], the system named is A. fumigatus RCMB 002568. The data set is described as above. Format: cell-based. To be noted: Aspergillus fumigatus, RCMB002568, mean of three values, read-out: MIC (Mean ± SEM).

In brackets after ≈: the same amount, converted by molar mass.

With `CN(C)C=NC1=NNC(=O)C1=NNN1C(=O)c2ccccc2C1=O` [Compound 10, N'-{4-[(1,3-dioxo-1,3-dihydro-2H-isoindol-2-yl)hydrazono]-5-oxo-4,5-dihydro-1H-pyrazol-3-yl}-N,N-dimethylimidoformamide], the melting point was in the range of 136 to 138 °C. For the same compound, in [1], the half-maximal inhibitory concentration (IC50) is 16.7 ± 0.26 µg/mL (≈ 51.1 µM). Further, in [2], the zone of inhibition at 1000 µg/mL was 12.3 ± 0.4 mm. Besides, in data set [3], the IC50 was found to be 688.29 ± 0.11 µg/mL (≈ 2100 µM). For the same compound, in the data set with A. fumigatus RCMB 002568 [4], the zone of inhibition at 1000 µg/mL is 12.1 ± 1.5 mm. In the data set on E. coli RCMB 010052 [5], the zone of inhibition at 1000 µg/mL was 22.6 ± 1.5 mm. Also, the “Mean diameter of inhibition zone (Mean ± SEM)” value in the data set with C. albicans RCMB 005036 is given as “–”. Besides, in the data set with B. subtilis RCMB 010067 [6], the zone of inhibition at 1000 µg/mL is 11.3 ± 0.7 mm. Further, the zone of inhibition at 1000 µg/mL with S. pneumonia RCMB 010010 [7] worked out at 14.2 ± 0.4 mm.
Compound `N#Cc1cnc2c(N=NN3C(=O)c4ccccc4C3=O)c(O)nn2c1N` [Compound 12, 7-Amino-3-[(1,3-dioxo-1,3-dihydro-2H-isoindol-2-yl)diazenyl]-2-hydroxy-pyrazolo[1,5-a]pyrimidine-6-carbonitrile] gave a melting point of 302 °C. Further, the IC50 in data set [1] was 9.11 ± 1.02 µg/mL (≈ 26.2 µM). The zone of inhibition at 1000 µg/mL in data set [2] worked out at 15.8 ± 1.5 mm. In addition, the half-inhibitory concentration (IC50) in data set [3] worked out at 793.56 ± 0.31 µg/mL (≈ 2280 µM). For the same compound, the MIC in the data set with E. coli RCMB 010052 [8] was found to be 3.9 ± 0.03 µg/mL (≈ 11.2 µM). The MIC in the data set on S. pneumonia RCMB 010010 [9] is 7.81 ± 1.01 µg/mL (≈ 22.4 µM). Further, in the data set on A. fumigatus RCMB 002568 [4], the zone of inhibition at 1000 µg/mL stood at 20.7 ± 1.2 mm. Moreover, the MIC in the data set on B. subtilis RCMB 010067 [10] was found to be 0.98 ± 1.18 µg/mL (≈ 2.81 µM). In addition, the zone of inhibition at 1000 µg/mL in the data set with E. coli RCMB 010052 [5] was determined as 21.8 ± 1.3 mm. In the data set with C. albicans RCMB 005036, the “Mean diameter of inhibition zone (Mean ± SEM)” value is reported as “–”. Moreover, in [11], the MIC turned out to be 62.5 ± 1.06 µg/mL (≈ 179 µM). Besides, in the data set with B. subtilis RCMB 010067 [6], the zone of inhibition at 1000 µg/mL came out at 24.3 ± 0.6 mm. Moreover, in the data set on A. fumigatus RCMB 002568 [12], the minimal inhibitory concentration (MIC) was 3.9 ± 1 µg/mL (≈ 11.2 µM). Moreover, in the data set on S. pneumonia RCMB 010010 [7], the zone of inhibition at 1000 µg/mL turned out to be 18.6 ± 1.2 mm.
With `CSc1c(C#N)c(N)nc2c(N=NN3C(=O)c4ccccc4C3=O)c(O)nn12` [Compound 9, 5-Amino-3-((1,3-dioxo-1,3-dihydro-2H-isoindol-2-yl)diazenyl)-2-hydroxy-7-(methylthio)pyrazolo[1,5-a]pyrimidine-6-carbonitrile], the melting point was in the range of 210 to 211 °C. In [1], the IC50 was found to be 5.6 ± 1.57 µg/mL (≈ 14.2 µM). The zone of inhibition at 1000 µg/mL in [2] was found to be 17.2 ± 1.3 mm. In addition, in [3], the IC50 was 754.31 ± 0.2 µg/mL (≈ 1910 µM). The MIC with E. coli RCMB 010052 [8] came to 0.49 ± 1.08 µg/mL (≈ 1.24 µM). In the data set on S. pneumonia RCMB 010010 [9], the MIC is 3.9 ± 0.2 µg/mL (≈ 9.89 µM). In the data set on A. fumigatus RCMB 002568 [4], the zone of inhibition at 1000 µg/mL amounted to 16.6 ± 1.3 mm. Moreover, the minimal inhibitory concentration (MIC) in the data set on B. subtilis RCMB 010067 [10] is 1.95 ± 1.3 µg/mL (≈ 4.94 µM). The zone of inhibition at 1000 µg/mL in the data set with E. coli RCMB 010052 [5] amounted to 24 ± 1.3 mm. Further, the “Mean diameter of inhibition zone (Mean ± SEM)” value with C. albicans RCMB 005036 is “–”. In [11], the MIC was found to be 15.6 ± 0.26 µg/mL (≈ 39.6 µM). Also, the zone of inhibition at 1000 µg/mL in the data set on B. subtilis RCMB 010067 [6] is 23.2 ± 1.5 mm. For the same compound, the MIC in the data set with A. fumigatus RCMB 002568 [12] was 1.95 ± 0.34 µg/mL (≈ 4.94 µM). Further, the zone of inhibition at 1000 µg/mL in the data set on S. pneumonia RCMB 010010 [7] stood at 22.2 ± 0.6 mm.
For `O=C1c2ccccc2C(=O)N1N=Nc1c(O)nn2cc(-c3ccccc3)[nH]c12` [Compound 7, 2-((6-Hydroxy-2-phenyl-1H-imidazo[1,2-b]pyrazol-7-yl)diazenyl)isoindoline-1,3-dione], the melting point lay in the range of 196 to 198 °C. The IC50 in data set [1] is 23.6 ± 1.32 µg/mL (≈ 63.4 µM). Besides, in [2], the zone of inhibition at 1000 µg/mL worked out at 16.9 ± 1.2 mm. Also, the IC50 in data set [3] was 662.58 ± 0.17 µg/mL (≈ 1780 µM). The “Mean diameter of inhibition zone (Mean ± SEM)” value in the data set on A. fumigatus RCMB 002568 [4] is reported as “–”. Further, the zone of inhibition at 1000 µg/mL with E. coli RCMB 010052 [5] amounted to 11.9 ± 1.3 mm. Also, the “Mean diameter of inhibition zone (Mean ± SEM)” value with C. albicans RCMB 005036 is given as “–”. The zone of inhibition at 1000 µg/mL in the data set with B. subtilis RCMB 010067 [6] worked out at 21.5 ± 1.5 mm. Besides, the zone of inhibition at 1000 µg/mL with S. pneumonia RCMB 010010 [7] amounted to 12.7 ± 0.6 mm.
`CC1(C)S[C@@H]2[C@H](NC(=O)[C@H](N)c3ccccc3)C(=O)N2[C@H]1C(=O)O` [Ampicillin, reference compound]: the “Mean diameter of inhibition zone (Mean ± SEM)” value (in data set [2] (1 mg/mL); in the data set on A. fumigatus RCMB 002568 [4]; with E. coli RCMB 010052 [5] (1 mg/mL); in the data set with C. albicans RCMB 005036) was “–” throughout. In addition, the figures for the MIC (with E. coli RCMB 010052 [8]; in data set [11]) were 0.98 ± 1.05 µg/mL (≈ 2.8 µM) and 3.9 ± 0.15 µg/mL (≈ 11.2 µM), respectively. For the same compound, the zone of inhibition at 1000 µg/mL in the data set with B. subtilis RCMB 010067 [6] amounted to 26.4 ± 0.5 mm; in the data set with S. pneumonia RCMB 010010 [7], 23.8 ± 0.71 mm.
As to `CCOC(=O)C(C#N)=NNN1C(=O)c2ccccc2C1=O` [Compound 3, Ethyl 2-cyano-2-(2-(1,3-dioxoisoindolin-2-yl)hydrazono)acetate], the melting point is 128 to 129 °C. Also, the 50% inhibitory concentration (IC50) in data set [1] is 12.6 ± 0.13 µg/mL (≈ 44 µM). Besides, in data set [2], the zone of inhibition at 1000 µg/mL was found to be 15.3 ± 0.7 mm. The 50% inhibitory concentration (IC50) in data set [3] came out at 716.37 ± 0.1 µg/mL (≈ 2500 µM). The “Mean diameter of inhibition zone (Mean ± SEM)” value in the data set with A. fumigatus RCMB 002568 [4] is listed as “–”. Besides, the zone of inhibition at 1000 µg/mL in the data set on E. coli RCMB 010052 [5] amounted to 17.1 ± 0.5 mm. In the data set with C. albicans RCMB 005036, the “Mean diameter of inhibition zone (Mean ± SEM)” value was “–”. Moreover, in the data set with B. subtilis RCMB 010067 [6], the zone of inhibition at 1000 µg/mL turned out to be 17.3 ± 0.6 mm. Moreover, the zone of inhibition at 1000 µg/mL in the data set on S. pneumonia RCMB 010010 [7] came to 18.3 ± 0.7 mm.

These data come from article PMC6691772, “Novel phthalimide based analogues: design, synthesis, biological evaluation, and molecular docking studies” (Journal of Enzyme Inhibition and Medicinal Chemistry, 2019).
